Experimental findings from patent US7713966B2, “Heterobicyclic metalloprotease inhibitors” (Alantos Pharmaceuticals Holding, Inc., priority 2006, dated 2010) are described below.

Structures are written as SMILES.

Common to all, as to type: biochemical
In assay [1] the target is T1, catalytic domain of MMP-13 enzyme (Homo sapiens, UniProt P45452).
T1 construct: catalytic domain of MMP-13 enzyme (produced by Alantos or commercially available from Invitek (Berlin), Cat. # 30100812); purchased Invitek (Berlin) 30100812
Nature of the assay: Assay for determining MMP-13 inhibition (fluorescent substrate). To be noted: read-out: MMP-13 Activity (IC50 MMP-13), Group. The protocol: The typical assay for MMP-13 activity is carried out in assay buffer comprised of 50 mM Tris, pH 7.5, 150 mM NaCl, 5 mM CaCl2 and 0.05% Brij-35. Different concentrations of tested compounds are prepared in assay buffer in 50 μL aliquots. 10 μL of a 50 nM stock solution of catalytic domain of MMP-13 enzyme (produced by Alantos or commercially available from Invitek (Berlin), Cat. # 30100812) is added to the compound solution. The mixture of enzyme and compound in assay buffer is thoroughly mixed and incubated for 10 min at room temperature. Upon the completion of incubation, the assay is started by addition of 40 μl of a 12.5 μM stock solution of MMP-13 fluorescent substrate (Calbiochem, Cat. No. 444235). The time-dependent increase in fluorescence is measured at the 320 nm excitation and 390 nm emission by automatic plate multireader. The IC50 values are calculated from the initial reaction rates.

The target in assay [2] is T2, activated MMP-8 enzyme (Homo sapiens, UniProt P22894).
T2 construct: purchased Calbiochem 444229
Nature of the assay: Assay for determining MMP-8 inhibition (OmniMMP fluorescent substrate). To be noted: read-out: MMP-8 Activity (IC50 MMP-8), Group. As for the experimental part:
The typical assay for MMP-8 activity is carried out in assay buffer comprised of 50 mM Tris, pH 7.5, 150 mM NaCl, 5 mM CaCl2 and 0.05% Brij-35. Different concentrations of tested compounds are prepared in assay buffer in 50 μL aliquots. 10 μL of a 50 nM stock solution of activated MMP-8 enzyme (Calbiochem, Cat. No. 444229) is added to the compound solution. The mixture of enzyme and compound in assay buffer is thoroughly mixed and incubated for 10 min at 37° C. Upon the completion of incubation, the assay is started by addition of 40 μL of a 10 μM stock solution of OmniMMP fluorescent substrate (Biomol, Cat. No. P-126). The time-dependent increase in fluorescence is measured at the 320 nm excitation and 390 nm emission by an automatic plate multireader at 37° C. The IC50 values are calculated from the initial reaction rates.

Assay [3] deals with T3, catalytic domain of MMP-3 enzyme (Homo sapiens, UniProt P08254).
T3 construct: catalytic domain of MMP-3 enzyme (Biomol, Cat. No. SE-109); purchased Biomol SE-109
Nature of the assay: Assay for determining MMP-3 inhibition (NFF-3 fluorescent substrate). To be noted: read-out: MMP-3 Activity (IC50 MMP-3), Group. The protocol:
The typical assay for MMP-3 activity is carried out in assay buffer comprised of 50 mM MES, pH 6.0, 10 mM CaCl2 and 0.05% Brij-35. Different concentrations of tested compounds are prepared in assay buffer in 50 μL aliquots. 10 μL of a 100 nM stock solution of the catalytic domain of MMP-3 enzyme (Biomol, Cat. No. SE-109) is added to the compound solution. The mixture of enzyme and compound in assay buffer is thoroughly mixed and incubated for 10 min at room temperature. Upon the completion of incubation, the assay is started by addition of 40 μL of a 12.5 μM stock solution of NFF-3 fluorescent substrate (Calbiochem, Cat. No. 480455). The time-dependent increase in fluorescence is measured at the 330 nm excitation and 390 nm emission by an automatic plate multireader. The IC50 values are calculated from the initial reaction rates.

T3 sequence (P08254 100-272 limits assumed): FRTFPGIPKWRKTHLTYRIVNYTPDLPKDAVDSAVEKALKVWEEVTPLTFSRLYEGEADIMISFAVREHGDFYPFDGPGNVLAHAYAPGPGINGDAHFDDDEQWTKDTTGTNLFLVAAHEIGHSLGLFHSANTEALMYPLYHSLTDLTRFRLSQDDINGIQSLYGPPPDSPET
T2 sequence (P22894 101-467): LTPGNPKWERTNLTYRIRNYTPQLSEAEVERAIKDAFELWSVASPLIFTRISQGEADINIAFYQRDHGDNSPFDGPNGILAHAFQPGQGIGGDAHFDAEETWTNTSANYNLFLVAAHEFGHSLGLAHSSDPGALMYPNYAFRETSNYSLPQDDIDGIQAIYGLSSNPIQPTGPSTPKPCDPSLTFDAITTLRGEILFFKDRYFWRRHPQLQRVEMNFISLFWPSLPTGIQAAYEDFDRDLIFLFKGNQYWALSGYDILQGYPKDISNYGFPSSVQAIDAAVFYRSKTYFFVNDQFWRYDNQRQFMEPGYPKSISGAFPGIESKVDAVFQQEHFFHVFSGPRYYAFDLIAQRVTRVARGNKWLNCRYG

One may read the IC50 as the midpoint of a concentration-inhibition curve. In the case of `Nc1c(N2CCc3ccc(CNC(=O)c4nc5scc(-c6cccs6)c5c(=O)[nH]4)cc3C2)c(=O)c1=O` [2/51], the IC50 was under 100 nM in assay [1], 250 to 20000 nM in assay [2] and under 250 nM in assay [3].
As for `CC(C)(C)OC(=O)NCc1ccc2nc(C(=O)NCc3ccc4c(c3)NC(=O)CO4)[nH]c(=O)c2c1` [Example 14], the values for the IC50 in assay [1], in assay [2] and in assay [3] were under 100 nM, under 250 nM and 250 to 20000 nM, respectively.
Regarding `Cc1sc2nc(C(=O)NCc3ccc4c(c3)NC(=NC#N)CO4)[nH]c(=O)c2c1C` [2/221], the values for the IC50 in assay [1], in assay [2] and in assay [3] were under 100 nM, under 250 nM and 250 to 20000 nM, respectively.
Regarding `Cc1nsc2nc(C(=O)NCc3ccc4c(c3)CN(c3c(N)c(=O)c3=O)CC4)[nH]c(=O)c12` [2/134], the IC50 in assay [1] is 100 to 20000 nM; in assay [2], 250 to 20000 nM; in assay [3] it was under 250 nM.
For `O=C1COc2ccc(CNC(=O)c3nc4scc(-c5nccs5)c4c(=O)[nH]3)cc2N1` [2/265], the values for the IC50 in assay [1], in assay [2] and in assay [3] were under 100 nM, 250 to 20000 nM and under 250 nM, respectively.
Regarding `Cc1sc2nc(C(=O)NCc3ccc4c(c3)NC(=O)CO4)[nH]c(=O)c2c1C` [2/46], the IC50 is under 100 nM in assay [1], under 250 nM in assay [2] and 250 to 20000 nM in assay [3].
